Measurements as given in paper PMC8471380 (Molecules, 2021).

Columns and labels:
[1] = molecular target: T1, MK-801-binding (intrachannel) site of NMDA receptor (Rattus norvegicus, UniProt P35439); assay: Radioligand binding assay, [3H]MK-801 displacement
T1 construct: from tissue; host or cells: rat hippocampus membranes
Protocol: (§3) The effect of the test compounds on radioligand binding to NMDA receptors was evaluated by a modified method, as previously reported [83]. The following two radioligands were used: [^3H] […] A hippocampal membrane preparation for the radioligand binding assay was made as described previously [86, 87]. The obtained membrane pellet was resuspended in a working buffer (5 mM HEPES/4.5 mM Tris, pH 7.6 at 4 °C) in a ratio of 1:5 and stored in liquid nitrogen. The reaction mixture (the final volume was 0.5 mL) contained the working buffer (200 μL), a 50 nM radioligand solution (50 μL) and the membrane suspension (250 μL). The nonspecific binding was evaluated in the presence of 1 mM of the unlabeled ligand (50 μL).
(§4) For the binding assay, the reaction mixture was incubated at room temperature for 2 h. After the incubation, the samples were filtered through GF/B glass fiber filters (Whatman), washed with the working buffer, dried and transferred to scintillation vials. Then the scintillation fluid (5 mL), which is composed of diphenyloxazole (PPO) (4 g) and bis(5-phenyl-2-oxazolyl)benzene (POPOP) (0.2 g) in toluene (1 L) were added to the vials.
(§5) The effect of the test compounds on the binding of [^3H] […] The values of Ki were calculated according to a previously described method [88].

[2] = molecular target: T2, ifenprodil-binding site of NMDA receptor (NR2B subunit) (Rattus norvegicus, UniProt P35439+Q00960); assay: Radioligand binding assay, [3H]ifenprodil displacement
T2 construct: from tissue; host or cells: rat hippocampus membranes
T2 sequence (Q00960 27-1482, other chains not shown): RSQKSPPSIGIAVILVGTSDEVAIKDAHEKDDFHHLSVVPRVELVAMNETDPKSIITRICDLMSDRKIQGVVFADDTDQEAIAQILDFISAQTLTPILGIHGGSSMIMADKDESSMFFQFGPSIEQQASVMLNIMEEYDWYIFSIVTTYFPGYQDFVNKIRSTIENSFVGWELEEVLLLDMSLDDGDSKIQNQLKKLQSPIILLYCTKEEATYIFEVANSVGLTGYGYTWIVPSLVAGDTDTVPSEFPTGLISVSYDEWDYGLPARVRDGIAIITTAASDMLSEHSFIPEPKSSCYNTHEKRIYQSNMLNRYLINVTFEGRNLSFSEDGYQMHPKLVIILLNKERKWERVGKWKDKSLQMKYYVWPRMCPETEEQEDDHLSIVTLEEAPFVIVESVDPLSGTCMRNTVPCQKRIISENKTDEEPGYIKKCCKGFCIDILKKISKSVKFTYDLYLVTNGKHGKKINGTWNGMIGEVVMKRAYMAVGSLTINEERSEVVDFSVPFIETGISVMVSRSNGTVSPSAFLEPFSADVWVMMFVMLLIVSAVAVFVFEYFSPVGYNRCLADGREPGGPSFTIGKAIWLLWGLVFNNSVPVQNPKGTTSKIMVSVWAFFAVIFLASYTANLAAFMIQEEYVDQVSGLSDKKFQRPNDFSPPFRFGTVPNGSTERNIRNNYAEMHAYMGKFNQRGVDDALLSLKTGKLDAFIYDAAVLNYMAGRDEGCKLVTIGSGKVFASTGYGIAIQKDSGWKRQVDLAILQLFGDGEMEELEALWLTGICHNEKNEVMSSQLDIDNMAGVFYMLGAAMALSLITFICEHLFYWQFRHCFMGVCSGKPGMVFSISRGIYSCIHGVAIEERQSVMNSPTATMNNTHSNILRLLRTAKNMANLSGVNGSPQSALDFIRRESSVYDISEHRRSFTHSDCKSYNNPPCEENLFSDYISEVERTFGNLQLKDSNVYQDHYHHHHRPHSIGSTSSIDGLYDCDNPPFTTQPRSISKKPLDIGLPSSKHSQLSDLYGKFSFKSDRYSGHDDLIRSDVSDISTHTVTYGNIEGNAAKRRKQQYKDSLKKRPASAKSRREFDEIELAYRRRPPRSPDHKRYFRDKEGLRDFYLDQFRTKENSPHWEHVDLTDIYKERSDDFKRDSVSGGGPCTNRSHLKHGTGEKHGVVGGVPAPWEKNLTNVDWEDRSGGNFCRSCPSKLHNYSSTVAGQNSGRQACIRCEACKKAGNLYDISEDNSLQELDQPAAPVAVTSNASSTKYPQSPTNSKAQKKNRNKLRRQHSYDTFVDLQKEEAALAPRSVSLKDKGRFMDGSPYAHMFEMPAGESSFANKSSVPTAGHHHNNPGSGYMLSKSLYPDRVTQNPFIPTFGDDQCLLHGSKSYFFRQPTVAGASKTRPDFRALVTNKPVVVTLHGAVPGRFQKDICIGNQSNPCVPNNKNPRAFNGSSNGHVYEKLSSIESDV
Protocol: as §3, §4, §5

[3] = molecular target: T3, human erythrocyte AChE (Homo sapiens, UniProt P22303); assay: biochemical; conditions: 5 min incubation; mean ± SEM, n = 3
T3 construct: commercial human erythrocyte AChE; purchased Sigma; host or cells: human erythrocytes
T3 sequence (P22303 32-617 isoform P22303-2 limits assumed): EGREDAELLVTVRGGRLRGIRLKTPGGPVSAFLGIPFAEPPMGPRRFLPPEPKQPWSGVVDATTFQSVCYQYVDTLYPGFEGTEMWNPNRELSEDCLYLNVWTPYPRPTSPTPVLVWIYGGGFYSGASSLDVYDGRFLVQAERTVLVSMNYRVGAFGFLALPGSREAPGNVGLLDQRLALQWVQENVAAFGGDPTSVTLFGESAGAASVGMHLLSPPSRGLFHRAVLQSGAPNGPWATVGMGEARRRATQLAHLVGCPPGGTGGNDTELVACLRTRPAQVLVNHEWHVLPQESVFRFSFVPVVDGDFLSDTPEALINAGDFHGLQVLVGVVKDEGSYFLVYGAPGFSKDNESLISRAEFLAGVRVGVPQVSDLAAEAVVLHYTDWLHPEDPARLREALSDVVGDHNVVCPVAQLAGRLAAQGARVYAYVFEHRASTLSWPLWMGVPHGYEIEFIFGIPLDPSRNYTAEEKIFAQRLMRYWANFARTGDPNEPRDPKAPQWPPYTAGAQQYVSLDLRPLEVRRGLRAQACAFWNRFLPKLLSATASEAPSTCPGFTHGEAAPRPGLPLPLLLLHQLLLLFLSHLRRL

[4] = molecular target: T4, equine serum BChE (Equus caballus, UniProt P81908); assay: biochemical; conditions: 5 min incubation; mean ± SEM, n = 3
T4 construct: equine serum BChE; purchased Sigma; host or cells: equine serum
T4 sequence (P81908 whole entry): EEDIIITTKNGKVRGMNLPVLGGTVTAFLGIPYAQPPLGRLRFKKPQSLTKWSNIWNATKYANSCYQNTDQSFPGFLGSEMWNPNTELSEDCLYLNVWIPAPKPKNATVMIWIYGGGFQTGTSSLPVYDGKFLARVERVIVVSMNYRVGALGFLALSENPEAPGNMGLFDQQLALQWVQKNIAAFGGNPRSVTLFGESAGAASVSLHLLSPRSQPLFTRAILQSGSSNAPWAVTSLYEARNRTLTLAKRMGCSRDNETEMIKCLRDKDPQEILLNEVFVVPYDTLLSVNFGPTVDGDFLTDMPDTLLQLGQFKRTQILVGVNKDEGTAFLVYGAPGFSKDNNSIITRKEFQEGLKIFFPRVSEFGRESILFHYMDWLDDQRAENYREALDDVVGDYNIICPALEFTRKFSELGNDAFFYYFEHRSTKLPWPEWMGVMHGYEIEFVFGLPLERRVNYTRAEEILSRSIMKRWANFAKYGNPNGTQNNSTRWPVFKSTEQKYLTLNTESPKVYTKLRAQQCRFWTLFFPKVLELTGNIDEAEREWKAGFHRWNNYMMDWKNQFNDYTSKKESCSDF
Protocol: (§6) Reagents blanks consisted of reaction mixtures without substrates. […] Final enzyme and substrate concentrations were 0.02 unit/mL and 1 mM, respectively. Assays were carried out with a blank containing all constituents except porcine CES to assess non-enzymatic hydrolysis. The measurements were performed on a FLUOstar OPTIMA multifunctional microplate reader (BMG LABTECH, Ortenberg, Germany). The compounds were dissolved in DMSO. The incubation mixture contained 2% (v/v) of the solvent. […] The sample of the appropriate enzyme was incubated with the test compound for 5 min, and then the residual enzymatic activity was determined. Each experiment was performed in triplicate. […] Each experiment was performed in triplicate. The IC50 values were calculated with Origin 6.1 software.

[5] = molecular target: T5, porcine liver CES (Sus scrofa, UniProt Q29550); assay: CES inhibition, 4-nitrophenyl acetate hydrolysis; assay type: biochemical; conditions: read-out: % of inhibition of CES with 20 µM concentration of the compound
T5 sequence (Q29550 19-566): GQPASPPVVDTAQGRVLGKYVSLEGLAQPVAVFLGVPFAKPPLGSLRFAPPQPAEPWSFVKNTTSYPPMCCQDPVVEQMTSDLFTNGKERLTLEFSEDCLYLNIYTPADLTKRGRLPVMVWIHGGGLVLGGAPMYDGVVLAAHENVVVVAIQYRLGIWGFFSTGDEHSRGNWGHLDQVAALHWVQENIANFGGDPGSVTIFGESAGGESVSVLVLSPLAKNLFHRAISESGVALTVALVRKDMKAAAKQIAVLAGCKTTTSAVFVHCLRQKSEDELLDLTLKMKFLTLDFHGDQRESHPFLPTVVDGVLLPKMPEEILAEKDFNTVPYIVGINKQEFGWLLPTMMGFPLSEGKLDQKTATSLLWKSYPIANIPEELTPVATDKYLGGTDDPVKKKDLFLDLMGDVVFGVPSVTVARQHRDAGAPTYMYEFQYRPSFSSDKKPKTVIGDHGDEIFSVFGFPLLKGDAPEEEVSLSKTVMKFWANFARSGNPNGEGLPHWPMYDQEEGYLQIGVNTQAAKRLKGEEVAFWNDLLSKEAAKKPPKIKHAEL
Protocol: as §6

[6] = molecular target: T6, PAS of EeAChE (Electrophorus electricus, UniProt O42275); assay type: binding; conditions: 20 µM compound; 7 µM EeAChE, 8 µM propidium iodide; mean ± SEM, n = 3
T6 construct: AChE from Electrophorus electricus (EeAChE, type VI-S, lyophilized powder); purchased Sigma-Aldrich type VI-S; host or cells: Electrophorus electricus tissue
T6 sequence (O42275 24-633): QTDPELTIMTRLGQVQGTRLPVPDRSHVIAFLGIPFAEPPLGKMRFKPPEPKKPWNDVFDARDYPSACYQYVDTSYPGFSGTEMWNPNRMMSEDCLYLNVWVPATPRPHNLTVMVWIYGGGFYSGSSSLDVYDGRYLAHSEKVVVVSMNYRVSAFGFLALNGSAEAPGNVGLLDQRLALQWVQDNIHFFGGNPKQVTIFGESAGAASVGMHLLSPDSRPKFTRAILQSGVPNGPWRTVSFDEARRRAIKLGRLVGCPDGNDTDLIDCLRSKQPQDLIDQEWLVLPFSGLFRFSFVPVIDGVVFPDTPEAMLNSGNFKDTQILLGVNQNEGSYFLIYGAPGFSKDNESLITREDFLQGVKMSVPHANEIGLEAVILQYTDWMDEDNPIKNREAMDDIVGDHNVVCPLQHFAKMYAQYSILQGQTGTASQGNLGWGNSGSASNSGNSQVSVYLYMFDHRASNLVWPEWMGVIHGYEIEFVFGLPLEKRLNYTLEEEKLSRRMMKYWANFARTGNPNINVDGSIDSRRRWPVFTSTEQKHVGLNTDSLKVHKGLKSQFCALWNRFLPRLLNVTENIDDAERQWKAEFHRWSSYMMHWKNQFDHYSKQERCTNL
Protocol: The compounds were evaluated as potential inhibitors of proaggregation activity of AChE by measuring the displacement of propidium iodide from the PAS of the enzyme [53] using a fluorescence method [28]. AChE from Electrophorus electricus (EeAChE, type VI-S, lyophilized powder, Sigma-Aldrich, St. Louis, MO, USA) was used for consistency with our previous studies [8, 13, 63, 74]. The fluorescence intensity of propidium iodide bound to AChE increases several-fold. A decrease in the fluorescence intensity in the presence of the test compounds is indicative of their ability to bind to the AChE PAS and, correspondingly, to inhibit β-amyloid aggregation.
EeAChE (7 µM) was incubated with 20 µM of the test compound in 1 mM Tris-HCl buffer, pH 8.0, at 25 °C for 15 min. Then a solution of propidium iodide was added (final concentration 8 µM), the mixture was incubated for 15 min, and the fluorescence spectrum was recorded (excitation at 530 nm and emission at 600 nm). […] The blank contained propidium iodide at the same concentration in 1 mM Tris-HCl buffer, pH 8.0 at 25 °C. The measurements were performed in triplicate on a FLUOstar OPTIMA multifunctional microplate reader.
The degree of displacement of propidium iodide from the PAS of AChE (% displacement) was calculated by the equation:% displacement = 100 − (IFAChE + Propidium + inhibitor/IFAChE + Propidium) × 100, where IFAChE + Propidium is the fluorescence intensity of propidium iodide bound to EeAChE in the absence of the test compound (taken as 100%), and IFAChE + Propidium + inhibitor is the fluorescence intensity of propidium iodide bound to EeAChE in the presence of the test compound.

[7] = molecular target: T3, human erythrocyte AChE; assay: Kinetic study of AChE inhibition (Lineweaver-Burk); assay type: biochemical
Protocol: (§1) Kinetic studies were performed using commercial human erythrocyte AChE, equine serum BChE and porcine liver CES (Sigma, USA). The AChE and BChE activity was evaluated by Ellman’s method (λ = 412 nm) using 1 mM acetylthiocholine and 1 mM butyrylthiocholine (Sigma, St. Louis, MO, USA), respectively, as the substrate in 100 mM phosphate buffer, pH 7.5, 0.33 mM DTNB, 0.02 unit/mL of AChE or BChE at 25 °C as described in detail in [71]. Reagents blanks consisted of reaction mixtures without substrates. The CES activity was measured spectrophotometrically based on the release of 4-nitrophenol (λ = 405 nm) in the presence of 1 mM 4-nitrophenyl acetate as the substrate in 100 mM phosphate buffer, pH 8.0, at 25 °C as described in [71]. Final enzyme and substrate concentrations were 0.02 unit/mL and 1 mM, respectively. Assays were carried out with a blank containing all constituents except porcine CES to assess non-enzymatic hydrolysis. The measurements were performed on a FLUOstar OPTIMA multifunctional microplate reader (BMG LABTECH, Ortenberg, Germany). The compounds were dissolved in DMSO. The incubation mixture contained 2% (v/v) of the solvent. […] The sample of the appropriate enzyme was incubated with the test compound for 5 min, and then the residual enzymatic activity was determined. Each experiment was performed in triplicate. […]. […] Each experiment was performed in triplicate. The IC50 values were calculated with Origin 6.1 software.
(§2) The mechanisms of AChE and BChE inhibition were assessed by a thorough analysis of enzyme kinetics. The residual activity was determined after a 5-min incubation at 25 °C (for temperature equilibration) with three increasing concentrations of the inhibitor and six decreasing substrate concentrations.

[8] = molecular target: T4, equine serum BChE; assay: Kinetic study of BChE inhibition (Lineweaver-Burk); assay type: biochemical
Protocol: as §1, §2

[9] = tested on: isolated rat liver mitochondria; assay: Ca2+-induced mitochondrial swelling (MPT pore opening); assay type: biochemical; conditions: 30 µM compound; 12.5 µM Ca2+; 10 mM glutamate, 2 mM malate, 10 mM succinate; percentage relative to the reference compound
Protocol: Experiments were performed using outbred male rats weighing 200–220 g. The animals were housed under standard vivarium conditions in a normal day/night cycle and had ad libitum access to water and food. The procedure of rat euthanasia using carbon dioxide (CO2) inhalation for mitochondria preparation is in compliance with the Guidelines for Animal Experiments, which were approved by the local bioethics committee of the IPAC RAS.
Rat liver mitochondria were isolated by conventional differential centrifugation. Membrane potential of rat liver mitochondria was measured using the potential-sensitive fluorescent probe Safranine A on a Victor 3 multilabel plate reader (Perkin Elmer, Waltham, MA, USA). The fluorescence was recorded at λex = 485 nm and λem = 590 nm. Mitochondrial swelling was measured by spectrophotometry in 96-well clear bottom plates on a Victor 3 microplate reader (Perkin Elmer, Waltham, MA, USA) at 620 nm; CaCl2 was added to induce mitochondrial swelling (MPT opening).

[10] = tested on: tubulin and microtubule-associated proteins (Tb+MAP); assay: GTP-dependent Tb+MAP polymerization; assay type: biochemical, mouse; conditions: 100 µM compound; 0.1 mM GTP, 37 °C
Text: A crude fraction of tubulin and microtubule-associated proteins (Tb+MAP) was isolated from mouse brain tissue by a polymerization–depolymerization method. The procedure of mouse euthanasia using cervical dislocation for Tb+MAP preparation is in compliance with the Guidelines for Animal Experiments, which were approved by the local bioethics committee of the IPAC RAS. The freshly dissected brain was immediately placed on ice, cleared of meninges and surface blood vessels, and washed with cold buffer A (50 mM Tris-HCl, pH 6.9 at 4 °C, 2 mM EGTA). The extracted brain tissue was homogenized under ice cooling in the same buffer using a Potter S homogenizer (Sartorius). The resulting homogenate was centrifuged at 10,000× g for 30 min on an Avanti 25 centrifuge (Beckman) using a JA-14 rotor for the precipitation of non-ruptured cells. The precipitate was discarded, and the supernatant was again centrifuged at 100,000× g for 60 min at 4 °C on an Optima MAX XP centrifuge (Beckman) using a MLA-50 rotor. The precipitate was again discarded. The protein concentration in the supernatant was determined by the Bradford assay using the Bio-Rad Protein Assay kit (Bio-Rad, Hercules, CA, USA) according to manufacturer’s instructions. The resulting supernatant was a cytosolic fraction enriched in microtubular proteins (Tb and MAP).
The Tb+MAP preparation was centrifuged at 5000× g for 10 min at 4 °C immediately before polymerization in order to remove denatured and aggregated protein molecules by precipitation. The Tb+MAP polymerization was performed at 37 °C in buffer A in the presence of 0.1 mM GTP after addition of 100 µM of test compound or the same volume of vehicle (DMSO). The protein concentration in the sample was 0.2 mg/mL. The polymerization kinetics was monitored on a Victor 3 or EnVision microplate reader (Perkin Elmer, USA) at 355 nm and the stabilized rate of polymerization after the first wave was measured (dA355/dt).

[11] = Lineweaver-Burk double-reciprocal plots

Work on `CN1CCc2c(c3cc(F)ccc3n2CCNC23CC4CC(C)(CC(C)(C4)C2)C3)C1.Cl.Cl` [Compound 4c, N-(2-(8-Fluoro-2-methyl-3,4-dihydro-1H-pyrido[4,3-b]indol-5(2H)-yl)ethyl)-3,5-dimethyladamantane-1-amine dihydrochloride] yielded a Ki [1] of 4.7 ± 0.5 µM, a Ki [2] of 3.1 ± 0.3 µM and an IC50 [3] of 39.7 ± 3.2 µM. The IC50 [4] was 0.729 ± 0.011 µM, the inhibition at 20 µM [5] was 6.9 ± 0.4% and the “% of Displacement of Propidium Iodide from the PAS of EeAChE” value [6] was 13.1 ± 1.0%. For the same compound, the “αKi (non-competitive component), AChE” value ([7]; Lineweaver-Burk analysis) was 45.5 ± 3.8 µM, the Ki ([7]; Lineweaver-Burk analysis, read-out: Ki (competitive component), AChE) was 13.7 ± 0.02 µM and the “Type of AChE inhibition” value [7, 11] was “mixed type of inhibition”. The “αKi (non-competitive component), BChE” value ([8]; Lineweaver-Burk analysis) was 0.70 ± 0.01 µM, the Ki ([8]; Lineweaver-Burk analysis, read-out: Ki (competitive component), BChE) was 0.23 ± 0.02 µM and the “Type of BChE inhibition” value [8, 11] was “mixed type of inhibition”. For the same compound, the “Rate of Ca2+-Induced Mitochondrial Swelling (dA620/dt)” value [9] was 31 ± 10% and the “Rate of Tb+MAP Polymerization (dA355/dt)” value [10] was 166 ± 11%.
In the case of `Cc1ccc2c(c1)c1c(n2CCNC23CC4CC(C)(CC(C)(C4)C2)C3)CCN(C)C1.Cl.Cl` [Compound 4b, N-(2-(2,8-Dimethyl-3,4-dihydro-1H-pyrido[4,3-b]indol-5(2H)-yl)ethyl)-3,5-dimethyladamantane-1-amine dihydrochloride], the Ki [1] is reported as 7.9 ± 0.8 µM, the Ki [2] is reported as 8.8 ± 1 µM and the IC50 [3] is reported as 50.3 ± 3.4 µM. The IC50 [4] was 5.07 ± 0.09 µM, the inhibition at 20 µM [5] was 10.4 ± 0.5% and the “% of Displacement of Propidium Iodide from the PAS of EeAChE” value [6] was 14.7 ± 0.9%. The “Rate of Ca2+-Induced Mitochondrial Swelling (dA620/dt)” value [9] was 39 ± 7% and the “Rate of Tb+MAP Polymerization (dA355/dt)” value [10] was 153 ± 33%.
